Consider 2 compounds from US4190665A, “Substituted arylaliphatic acids” (Lipha, Lyonnaise Industrielle Pharmaceutique, priority 1976, dated 1980).

In data set [1] the test system is erythema (produced by exposure to ultraviolet radiation) of the shaved back of the guinea pig. As to the kind of experiment: UV erythema test on the guinea pig (Winder et al.), anti-inflammatory effect. The conditions noted are these: Cavia porcellus, po, orally, read-out: Active Dose 50 (decreased erythema by 50%). The data set is classed as in vivo, albino guinea pig. As for the experimental part: (§1) The anti-inflammatory effect of the new drugs was determined in two tests.
(b) In the UV erythema test on the guinea pig (Winder, C. V., Wax, J., Burr, V., Been, M., Rosiere, C. E., Arch. Int. Pharmacodyn., 116, 261, 1958) the protective activity against precocious inflammation in the albino guinea pig was investigated. A determination was made of the active dose 50 which, administered orally to the animal, decreased erythema (produced by exposure to ultraviolet radiation) of the shaved back of the guinea pig by 50%.

Data set [2] has as its system painful contractures, caused by intraperitoneal injection of a dilute acetic acid solution. As to the kind of experiment: analgesic activity in the mouse by the method of Koster (acetic acid contractures). The data set is classed as in vivo. The note with it: po, orally, read-out: Active Dose 50 (diminished painful contractures by 50%). The source says: The analgesic activity can be determined in the mouse by the method of Koster, R., Anderson, M., Debeer, E. J., Federation Proc., 1959, 18, 412. A determination was made of the active dose 50 of the drug which, administered orally, diminished painful contractures, caused by intraperitoneal injection of a dilute acetic acid solution, by 50%.

A short description of data set [3]: LD50, orally, mouse (acute toxicity). The note with it: in vivo, po.
The test system of data set [4] is edema triggered by injecting a carrageenin suspension into the sole of the foot of the rat. As to the kind of experiment: carrageenin-induced edema test (Winter and Risley), anti-inflammatory effect. The conditions noted are these: po, orally, read-out: AD30 orally (active dose 30, inhibiting edema development by 30%). In kind it is in vivo. As for the experimental part: as §1
(a) In the carrageenin-induced edema test according to Winter, C. A. and Risley, E. A. (Proc. Soc. Exp. Biol. Med. 1962, 111, 544-547) the protection conferred by the drug administered orally to the rat against an edema triggered by injecting a carrageenin suspension into the sole of the foot of the rat was investigated. The table below gives the "active dose 30" (inhibiting edema development by 30%) of both compounds.

For `CC(C(=O)O)c1ccc(-n2cccc2)c([N+](=O)[O-])c1` (centres unmarked) [Compound A, 2-(3'-nitro-4'-[1"-pyrrolyl]phenyl) propionic acid], the ED50 is 18.4 mg/kg in data set [1] and 50 mg/kg in data set [2]. Further, the 50% lethal dose (LD50) (usually the dose expected to kill half of the subjects tested) in data set [3] came to 3200 mg/kg. Also, the ED30 in data set [4] is 12 mg/kg.
The corresponding values for `CC(C(=O)O)c1ccc(-n2cccc2)c(N)c1` (centres unmarked) [Compound B, 2-(3'-amino-4'-[1"-pyrrolyl]phenyl) propionic acid] are 4.7 mg/kg, 19 mg/kg, 3000 mg/kg and 12 mg/kg.
